Source: ChEMBL document CHEMBL4699626, “Potential α-glucosidase inhibitor from Hylotelephium erythrostictum” (Bioorg Med Chem Lett, 2020)
One block for each compound: values may come before it. Active and inactive are the calls of the source. No cut-off for these calls is given here.

Experiments:
[1] = Inhibition of alpha-glucosidase (unknown origin) using p-nitrophenyl-alpha-D-glucopyranoside as substrate
Homo sapiens [2] = species: Homo sapiens; assay: Competitive inhibition of alpha-glucosidase (unknown origin) assessed as increase in Km with constant Vmax by Lineweaver-Burk plot analysis
[3] = Competitive inhibition of alpha-glucosidase (unknown origin) by Dixon plot analysis; design: species or system Homo sapiens
Homo sapiens [4] = species: Homo sapiens; assay: Potency index, ratio of Acarbose IC50 to test compound IC50 for alpha-glucosidase (unknown origin)
[5] = Inhibition of alpha-glucosidase (unknown origin); design: species or system Homo sapiens
[6] = Inhibition of Saccharomyces cerevisiae alpha-glucosidase assessed as decrease in release of p-nitrophenol using pNPG as substrate preincubated for 2 hrs followed by substrate addition by spectrophotometric method

IC50 ([1]; read-out: IC50): 731 µM
Compound: COc1cc(O)c2c(=O)c(O)c(-c3ccc(O)cc3)oc2c1 [RHAMNOCITRIN]

inhibition (Homo sapiens [2]): Active | IC50 ([1]; read-out: IC50): 1.8 µM | Ki [3]: 0.709 µM | Ratio IC50 (Homo sapiens [4]): 457
Compound: COC1(c2ccc(O)c(O)c2)Oc2cc(O)cc(O)c2C1=O (centres undefined)

Second part, the compound before the results:

Compound: COc1cc(OC)c2c(c1)OC(OC)(c1ccc(OC)c(OC)c1)C2=O (centres undefined)
IC50 [1]: Not Active

Compound: O=c1c(O)c(-c2ccc(O)cc2)oc2cc(O)cc(O)c12 [KAEMPFEROL]
IC50 ([1]; read-out: IC50): 420 µM

Compound: COc1ccc(-c2oc3cc(O)cc(O)c3c(=O)c2O)cc1 [KAEMPFERIDE]
IC50 [5]: 647 µM

Compound: O=c1cc(-c2ccc(O)cc2)oc2cc(O)cc(O)c12 [APIGENIN]
IC50 [6]: 365 µM
